Experimental data: article PMC5524698, “A cell-based, quantitative and isoform-specific assay for exchange proteins directly activated by cAMP” (Scientific Reports, 2017)
Each block holds one compound with its values, some of them ahead of it.

Key:
[1] = target: T1, EPAC2 (Mus musculus, UniProt Q9EQZ6); test: Cellular Rap1 assay (ELISA for Rap1-GTP) in HEK293/mEPAC2/Flag-Rap1 cells; format: cell-based
T1 construct: HEK293 cell lines stably expressing Flag-tagged Rap1A and full-length EPAC1 or EPAC2 are proposed; expressed in transfected cells
T1 sequence (Q9EQZ6 1-1011): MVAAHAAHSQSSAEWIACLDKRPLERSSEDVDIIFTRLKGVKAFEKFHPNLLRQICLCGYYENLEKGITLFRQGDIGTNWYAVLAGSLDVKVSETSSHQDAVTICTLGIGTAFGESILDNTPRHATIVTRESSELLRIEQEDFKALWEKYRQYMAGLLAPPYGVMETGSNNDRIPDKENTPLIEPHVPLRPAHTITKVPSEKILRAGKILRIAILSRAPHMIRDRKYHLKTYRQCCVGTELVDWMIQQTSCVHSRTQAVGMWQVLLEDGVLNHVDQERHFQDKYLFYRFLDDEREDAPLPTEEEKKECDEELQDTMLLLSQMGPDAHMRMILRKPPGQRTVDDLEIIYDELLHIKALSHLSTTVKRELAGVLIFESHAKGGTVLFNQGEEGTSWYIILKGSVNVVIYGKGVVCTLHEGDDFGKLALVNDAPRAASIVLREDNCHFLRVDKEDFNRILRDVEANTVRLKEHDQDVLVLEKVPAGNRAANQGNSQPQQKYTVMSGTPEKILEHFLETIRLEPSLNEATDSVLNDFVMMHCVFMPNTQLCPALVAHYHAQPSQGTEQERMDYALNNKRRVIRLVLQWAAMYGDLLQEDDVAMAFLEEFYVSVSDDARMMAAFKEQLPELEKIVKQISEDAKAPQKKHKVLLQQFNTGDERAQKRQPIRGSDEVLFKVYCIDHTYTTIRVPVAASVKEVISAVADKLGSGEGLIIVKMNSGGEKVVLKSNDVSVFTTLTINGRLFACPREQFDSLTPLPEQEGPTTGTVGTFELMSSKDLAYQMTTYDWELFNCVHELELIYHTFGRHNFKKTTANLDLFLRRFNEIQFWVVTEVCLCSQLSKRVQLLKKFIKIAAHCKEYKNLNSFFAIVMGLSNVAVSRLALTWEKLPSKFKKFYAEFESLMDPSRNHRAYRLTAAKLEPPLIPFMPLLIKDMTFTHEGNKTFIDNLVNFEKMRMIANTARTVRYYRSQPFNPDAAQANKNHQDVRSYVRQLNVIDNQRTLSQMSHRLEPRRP
Description: HEK293 cells co-expressing hEPAC1/Flag-tagged hRap1A or mEPAC2/Flag-tagged hRap1A were seeded in 12-well plates (Corning #3513) at an initial confluency of 400,000 cell/well and incubate at 37 °C, 5% CO2, in MEM medium with 10% FBS, for 24 hours. Cells were then rinsed with HBSS and cultured in FBS-free MEM medium for another 16 hours. If necessary cells were first pretreated with various concentration of antagonists or vehicle at 37 °C for 30 min. Otherwise, the cells were stimulated with various concentrations of agonists or vehicle controls at 37 °C for 10 min, then immediately rinsed with ice-cold PBS and lysed in 500 µl ice-cold lysis buffer containing 20 mM Tris-HCl, pH 7.4, 150 mM NaCl, 10 mM MgCl2, 1% IGEPAL CA-630 and proteinase inhibitors cocktail. Cell extracts were clarified by centrifugation at 18,000 RCF for 20 min and their protein concentrations were determined by DC protein assay kit. […] 200 µl of OPD substrate was added into each well and absorbance signal at 450 nm was monitored using an M2 microplate reader (Molecular Devices) for 30 min with 1-min intervals. 10-min data points were used for quantification.

[2] = target: T2, EPAC1 (Homo sapiens, UniProt O95398); test: Cellular Rap1 assay (ELISA for Rap1-GTP) in HEK293/hEPAC1/Flag-Rap1 cells; format: cell-based; conditions: for AC50: 10 min stimulation, read-out: apparent half maximal activation constant (AC50), Rap1-GTP levels
T2 construct: HEK293 cell lines stably expressing Flag-tagged Rap1A and full-length EPAC1 or EPAC2 are proposed; expressed in transfected cells
T2 sequence (O95398 1-923): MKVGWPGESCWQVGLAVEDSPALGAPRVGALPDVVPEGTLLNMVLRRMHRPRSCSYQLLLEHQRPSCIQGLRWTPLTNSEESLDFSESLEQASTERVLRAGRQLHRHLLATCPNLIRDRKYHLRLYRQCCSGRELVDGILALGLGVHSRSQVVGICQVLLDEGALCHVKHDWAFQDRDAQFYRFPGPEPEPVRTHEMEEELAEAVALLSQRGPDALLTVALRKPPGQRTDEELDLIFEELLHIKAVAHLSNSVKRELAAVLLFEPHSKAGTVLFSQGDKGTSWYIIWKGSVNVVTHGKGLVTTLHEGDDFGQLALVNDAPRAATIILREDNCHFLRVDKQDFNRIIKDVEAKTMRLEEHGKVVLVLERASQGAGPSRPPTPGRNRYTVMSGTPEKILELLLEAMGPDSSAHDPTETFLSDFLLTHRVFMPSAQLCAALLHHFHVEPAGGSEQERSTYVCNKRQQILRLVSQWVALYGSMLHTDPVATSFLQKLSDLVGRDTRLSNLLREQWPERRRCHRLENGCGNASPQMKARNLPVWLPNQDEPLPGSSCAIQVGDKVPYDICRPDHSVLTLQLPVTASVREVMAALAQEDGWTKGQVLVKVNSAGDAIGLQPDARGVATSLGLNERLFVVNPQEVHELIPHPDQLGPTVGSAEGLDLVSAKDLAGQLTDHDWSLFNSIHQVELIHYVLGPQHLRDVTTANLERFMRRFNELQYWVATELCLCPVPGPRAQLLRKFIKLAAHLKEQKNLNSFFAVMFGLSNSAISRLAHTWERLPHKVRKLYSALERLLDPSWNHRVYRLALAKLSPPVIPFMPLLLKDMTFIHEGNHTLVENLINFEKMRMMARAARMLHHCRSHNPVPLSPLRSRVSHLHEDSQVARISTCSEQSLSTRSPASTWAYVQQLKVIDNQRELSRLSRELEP
Description: To develop a cell-based, isoform-specific EPAC activation assay, HEK293 cell lines stably expressing Flag-tagged Rap1A and full-length EPAC1 or EPAC2 are proposed. HEK293 cells express minimal endogenous levels of EPAC1 and EPAC2 and have been used as host cells for evaluating the cellular activities of ectopically expressed EPAC proteins in an isoform-specific manner. Activation of EPAC1 or EPAC2 in these cell lines by cAMP elevating agents leads to the accumulation of Flag-Rap1-GTP, which can be captured by RalGDS-RBD immobilized in a nickel-coated 96-well microplate. The levels of active Flag-Rap1-GTP protein can be quantitatively monitored using a specific anti-FLAG antibody and a HRP conjugated secondary antibody in a manner similar to that of a conventional ELISA assay (Fig. 1).
HEK293 (ATCC) cells were grown in MEM medium supplemented with 10% heat-inactivated FBS (Invitrogen), at 37 °C, 5% CO2. HEK293 stable cell lines expressing Flag-tagged human Rap1A (Flag-hRap1A) alone and co-expressing human EPAC1 (hEPAC1) and Flag-hRap1A or mouse EPAC2 (mEPAC2) and Flag-hRap1A were established by sequential transfections using Lipofectamine 2000 reagent (Invitrogen) with mammalian expression vectors, first with pIRES2-EGFP containing Flag-hRap1A and followed by pIRES‐hyg2 containing hEPAC1 or mEPAC2. Individual stable cell clones were selected and maintained in MEM containing 500 µg/ml G418 for pIRES2-EGFP and 100 µg/ml hygromycin B for pIRES‐hyg2, respectively.
HEK293 cells co-expressing hEPAC1/Flag-tagged hRap1A or mEPAC2/Flag-tagged hRap1A were seeded in 12-well plates (Corning #3513) at an initial confluency of 400,000 cell/well and incubate at 37 °C, 5% CO2, in MEM medium with 10% FBS, for 24 hours. Cells were then rinsed with HBSS and cultured in FBS-free MEM medium for another 16 hours. If necessary cells were first pretreated with various concentration of antagonists or vehicle at 37 °C for 30 min. Otherwise, the cells were stimulated with various concentrations of agonists or vehicle controls at 37 °C for 10 min, then immediately rinsed with ice-cold PBS and lysed in 500 µl ice-cold lysis buffer containing 20 mM Tris-HCl, pH 7.4, 150 mM NaCl, 10 mM MgCl2, 1% IGEPAL CA-630 and proteinase inhibitors cocktail. Cell extracts were clarified by centrifugation at 18,000 RCF for 20 min and their protein concentrations were determined by DC protein assay kit. 100 µl of properly diluted cell lysates containing 0 to 50 µg total proteins were added to nickel coated 96-well plate strips that were pre-coated with 200 µg of RalGDS-RBD-His6 proteins and incubated at 4 °C for 2 hours with gentle rocking. After washing with 100 µl ice-cold ELISA buffer (20 mM Tris-HCl, pH 7.4, 150 mM NaCl, 10 mM MgCl2 and 0.1% Tween-20) for 3 times, 100 µl mouse anti-Flag antibody (1:5000 in ELISA buffer) was added into each well and incubated at 4 °C for 1 hour with gentle shaking. Following three washes with 100 µl ice-cold ELISA buffer, 100 µl anti-mouse HRP-conjugated antibodies (1:3000 in ELISA buffer) were added into each well. After incubation at room temperature for 1 hour with gentle shaking, the wells were washed three times with 100 µl ELISA buffer. 200 µl of OPD substrate was added into each well and absorbance signal at 450 nm was monitored using an M2 microplate reader (Molecular Devices) for 30 min with 1-min intervals. 10-min data points were used for quantification.

[3] = tested on: EPAC2; design: method as in PMID 23091014, PMID 23286832; conditions: in the presence of 20 µM cAMP; selective for EPAC2, not EPAC1; cited from earlier work
[4] = target: T2, EPAC1; test: Conventional affinity pull-down assay of Rap1-GTP using GST-RalGDS-RBD, immunoblot; format: cell-based; conditions: HEK293/hEPAC1/Flag-Rap1 cells, various concentrations
Description: Forskolin is a labdane diterpene natural product, commonly used a biochemical tool to stimulate intracellular levels of cAMP[31]. Treatment of HEK293/hEPAC1/Flag-Rap1 or HEK293/mEPAC2/ Flag-Rap1 cells with forskolin led to a dose-dependent increase in Rap1-GTP levels in both cell lines (Fig. 3A,B). […] Since forskolin-mediated increase in intracellular cAMP activates both EPAC and PKA, to ensure that the signals observed in our assay were not in part due to the activation of PKA, control experiments in the presence of a PKA-specific inhibitor, H89, were performed.
Figure S1. Dose-dependent cellular activation of EPAC1 by forskolin. Relative Rap1-GTP levels, as monitored by affinity pull-down assay using GST-RalGDS-RBD, in HEK293 cells overexpressing EPAC1 stimulated by various concentrations of forskolin. Inset: representative immunoblot image of Rap1-GTP levels under basal and forskolin-stimulated conditions.

- dose-dependent activation of EPAC2 (Rap1-GTP levels) ([1]; up to 10 µM): did not reach plateau
- AC50 ([2]; HEK293/hEPAC1/Flag-Rap1 cells): 16.5 ± 3.1 nM
Compound: CO[C@@H]1[C@@H]2OP(=O)(OCOC(C)=O)OC[C@H]2O[C@H]1n1c(Sc2ccc(Cl)cc2)nc2c(N)ncnc21 (stereo partly shown) [007-AM, 8-pCPT-2-O-Me-cAMP-AM]

Compound: Cc1ccc(S(=O)(=O)c2c(C)cc(C)cc2C)cc1 [ESI-05]
- potency of EPAC2 inhibition [3]: sub-micromolar
- inhibition of cellular EPAC1 activation ([2]; stimulated by 1 µM Forskolin, HEK293/hEPAC1/Flag-Rap1 cells): no detectable activity

- activation of Rap1 (relative Rap1-GTP levels, pull-down) [4]: dose-dependent activation
- AC50 ([1]; 10 min stimulation, read-out: apparent half maximal activation constant (AC50), Rap1-GTP levels): 137 ± 36 nM
- AC50 ([2]; HEK293/hEPAC1/Flag-Rap1 cells): 226 ± 57 nM
Compound: C=C[C@@]1(C)CC(=O)[C@]2(O)[C@@]3(C)[C@@H](O)CCC(C)(C)[C@@H]3[C@H](O)[C@H](OC(C)=O)[C@@]2(C)O1 [Forskolin]

- effects on basal and forskolin-induced Rap1 activities ([2]; 10 µM H89, HEK293 cells overexpressing EPAC1 (Fig. S2)): minimal
Compound: O=S(=O)(NCCNC/C=C/c1ccc(Br)cc1)c1cccc2cnccc12 [H89]

- IC50 ([1]; stimulated by 1 µM Forskolin, 30 min pretreatment, read-out: apparent IC50, inhibition of cellular EPAC2 activity): 9600 ± 1600 nM
- IC50 ([2]; stimulated by 1 µM Forskolin, 30 min pretreatment, HEK293/hEPAC1/Flag-Rap1 cells, read-out: apparent IC50, inhibition of cellular EPAC1 activity): 4900 ± 600 nM
Compound: CC(C)(C)c1cc(C(=O)/C(C#N)=N/Nc2cc(Cl)c(Cl)c(Cl)c2)no1 [NY-0123]
